Counter-ions that a name gives are not always drawn. Like-named read-outs stand apart in the source and are kept apart here.
Assays:
5-HT2a = target: T1, 5-HT2a (Rattus norvegicus, UniProt P14842); experiment: 5-HT2 functional assay: [Ca2+]i mobilization (FLIPR) in A7r5 cells; type: cell-based; conditions: for Emax: read-out: FLIPR 5-HT2a % Emax A7r5 Ca + 2
T1 construct: endogenous in cells; host or cells: A7r5 rat vascular smooth muscle cells
Protocol: The receptor-mediated mobilization on intracellular calcium ([Ca^2+]i) was studied using the Fluorescence Imaging Plate Reader (FLIPR) instrument. Rat vascular smooth muscle cells, A7r5, were grown in a normal media of DMEM/10% FBS and 10 μg/mL gentamycin. Confluent cell monolayers were trypsinized, pelleted, and re-suspended in normal media. Cells were seeded in a 50 μL volume at a density of 20,000 cells/well in a black wall, 96-well tissue culture plate and grown for 2 days.
On the day of the experiment, one vial of FLIPR Calcium Assay Kit dye was re-suspended in 50 mL of a FLIPR buffer consisting of Hank's Balanced Salt Solution (HBSS), 20 mM HEPES, and 2.5 mM probenecid, pH 7.4. Cells were loaded with the calcium-sensitive dye by addition of an equal volume ([…]) to each well of the 96-well plate and incubated with dye for 1 h at 23° C.
Typically, test compounds were stored at 25 μM in 50% DMSO/50% Ethanol solvent. Compounds were diluted 1:50 in 20% DMSO/20% Ethanol. For “hit” screening, compounds were further diluted 1:10 in FLIPR buffer and tested at a final concentration of 10 μM. For dose-response experiments, compounds were diluted 1:50 in FLIPR buffer and serially diluted 1:10 to give a 5- or 8-point dose-response curve.
The compound plate and cell plate were placed in the FLIPR instrument. At the beginning of an experimental run, a signal test was performed to check the basal fluorescence signal from the dye-loaded cells and the uniformity of the signal across the plate. The basal fluorescence was adjusted between 8000–12000 counts by modifying the exposure time, the camera F-stop, or the laser power. Instrument settings for a typical assay were the following: laser power 0.3–0.6 W, camera F-stop F/2, and exposure time 0.4 sec. An aliquot (25 μL) of the test compound was added to the existing 100 μL dye-loaded cells at a dispensing speed of 50 μL/sec. Fluorescence data were collected in real-time at 1.0 sec intervals for the first 60 secs and at 6.0 sec intervals for an additional 120 secs. Responses were measured as peak fluorescence intensity minus basal and where appropriate were expressed as a percentage of a maximum 5-HT-induced response.

5-HT2 receptor [1] = target: T2, 5-HT2 receptor (Rattus norvegicus, UniProt P14842); experiment: 5-HT2 functional assay: phosphoinositide (PI) turnover in A7r5 cells; type: cell-based; set-up: [^3H]myo-inositol-labeled A7r5 rat vascular smooth muscle cells; endogenous in cells; host or cells: A7r5 rat vascular smooth muscle cells
Protocol: The relative agonist activity of serotonergic compounds at the 5-HT2 receptor can be determined in vitro using the ability of the compounds to stimulate the production of [^3H]inositol phosphates in [^3H]myo-inositol-labeled A7r5 rat vascular smooth muscle cells by their ability to activate the enzyme phospholipase C. These cells are grown in culture plates, maintained in a humidified atmosphere of 5% CO2 and 95% air and fed semi-weekly with Dulbecco's modified Eagle medium (DMEM) containing 4.5 g/L glucose and supplemented with 2 mM glutamine, 10 μg/ml gentamicin, and 10% fetal bovine serum. For the purpose of conducting the phosphoinositide (PI) turnover experiments, the A7r5 cells are cultured in 24-well plates as previously [J. Pharmacol. Expt. Ther. 286, 411 (1998)]. Confluent cells are exposed for 24–30 hrs to 1.5 μCi [^3H]-myo-inositol (18.3 Ci/mmol) in 0.5 ml of serum-free medium. Cells are then rinsed once with DMEM/F-12 containing 10 mM LiCl prior to incubation with the test agent (or solvent as the control) in 1.0 mL of the same medium for 1 hr at 37° C., after which the medium is aspirated and 1 ml of cold 0.1 M formic acid added to stop the reaction. The chromatographic separation of [^3H]-inositol phosphates ([^3H]-IPs) on an AG-1-X8 column is performed as previously described [J. Pharmacol. Expt. Ther. 286, 411 (1998)] with sequential washes with H2O and 50 mM ammonium formate, followed by elution of the total [^3H]-IPs fraction with 1.2 M ammonium formate containing 0.1 M formic acid. The eluate (4 mL) is collected, mixed with 15 ml scintillation fluid, and the total [^3H]-IPs determined by scintillation counting on a beta-counter. Concentration-response data are analyzed by the sigmoidal fit function of the Origin Scientific Graphics software (Microcal Software, Northampton, Mass.) to determine agonist potency (EC50 value) and efficacy (Emax).

5-HT2 receptor [2] = target: T2, 5-HT2 receptor; experiment: 5-HT2 receptor binding assay ([125I]DOI competition, cerebral cortex homogenates); conditions: 5-point, read-out: Rat Cerebral Cortex 5-HT2 IC50 5-pt (DOI)
Protocol: The assay mixture is incubated for 1 hour at 23° C. in polypropylene tubes and the assays terminated by rapid vacuum filtration over Whatman GF/B glass fiber filters previously soaked in 0.3% polyethyleneimine using ice-cold buffer. Test compounds (at different concentrations) are substituted for methiothepin. Filter-bound radioactivity is determined by scintillation spectrometry on a beta counter. The data are analyzed using a non-linear, iterative curve-fitting computer program [Trends Pharmacol. Sci., 16, 413 (1995)] to determine the compound affinity parameter.

[3] = rabbits; Osborne et al. 1996; cited from earlier work
[4] = monkey; Wang et al. 1997/1998; attributed to α1A receptor activity; cited from earlier work
[5] = A7r5 cells, percentage of maximum 5-HT-induced response
[6] = A7r5 cells, Ca2+ mobilization, read-out: FLIPR 5-HT2a EC50

T2 sequence (P14842 whole entry): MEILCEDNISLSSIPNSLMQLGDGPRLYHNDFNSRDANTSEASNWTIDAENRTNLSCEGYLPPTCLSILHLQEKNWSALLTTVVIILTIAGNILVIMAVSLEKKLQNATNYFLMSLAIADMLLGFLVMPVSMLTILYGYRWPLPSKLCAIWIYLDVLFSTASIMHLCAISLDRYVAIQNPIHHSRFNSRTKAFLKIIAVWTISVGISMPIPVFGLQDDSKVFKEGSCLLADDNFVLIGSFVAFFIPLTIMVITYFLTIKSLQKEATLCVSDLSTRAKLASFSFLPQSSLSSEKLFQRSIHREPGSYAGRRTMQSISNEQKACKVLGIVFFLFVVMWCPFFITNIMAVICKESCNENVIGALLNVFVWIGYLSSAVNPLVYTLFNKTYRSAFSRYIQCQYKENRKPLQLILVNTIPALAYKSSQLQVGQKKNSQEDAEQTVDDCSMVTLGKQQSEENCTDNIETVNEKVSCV
T1 sequence (P14842 whole entry): as above

COc1ccc(OC)c2cc(CC(C)N)ccc12 (centres unmarked) [Example 8, 2-(5,8-dimethoxy-naphthalen-2-yl)-1-methylethylamine hydrochloride]
Emax (5-HT2a; [5]): 2.6%

COc1cc(CC(C)N)c(Br)c2ccccc12 (centres unmarked) [Example 12, 2-(1-Bromo-4-methoxy-naphthalen-2-yl)-1-methylethylamine hydrochloride]
EC50 (5-HT2a): 0.911 µM
Emax (5-HT2a; [5]): 37.4%

COc1cc(C(O)C(C)N)c(OC)c2ccccc12 (centres unmarked) [Example 2, 2-Amino-1-(1,4-dimethoxy-naphthalen-2-yl)-propan-1-ol hydrochloride]
EC50 (5-HT2 receptor [1]): 6.81 µM
Emax (5-HT2 receptor [1]; A7R5, read-out: Efficacy (Emax, %)): 113%
EC50 (5-HT2a; [6]): 1.49 µM
Emax (5-HT2a; [5]): 26.9%

2-amino-1-(3,8-dimethoxy-naphthalen-2-yl)-propan-1-ol hydrochloride [Example 6]
FLIPR 5-HT2a % Emax A7r5 Ca + 2 (5-HT2a; [5]): 17.8%
IC50 (5-HT2 receptor [2]): 0.00492 µM

COc1cc(CC(C)N)cc2ccccc12 (centres unmarked) [Example 11, 2-(4-methoxy-naphthalen-2-yl)-1-methylethylamine hydrochloride]
EC50 (5-HT2a): 0.612 µM
Emax (5-HT2a; [5]): 46.4%

COc1c(CC(C)N)ccc2ccccc12 (centres unmarked) [Example 4, 2-(1-Methoxy-naphthalen-2-yl)-1-methylethylamine hydrochloride]
EC50 (5-HT2a): 0.58 µM
Emax (5-HT2a; [5]): 28.9%

CCCN(CCC)C1CCc2cccc(O)c2C1 (centres unmarked) [Example 8-OH-DPAT, 8-hydroxydipropylaminotetralin]
effect on IOP [3]: reduces IOP

COc1ccccc1N1CCN(CCCNc2c(C)c(=O)n(C)c(=O)n2C)CC1 [5-methylurapidil]
effect on IOP [4]: lowers IOP

COc1c(CC(C)N)cc(Br)c2ccccc12 (centres unmarked) [Example 5, 2-(4-Bromo-1-methoxy-naphthalen-2-yl)-1-methylethylamine hydrochloride]
EC50 (5-HT2a): 1.12 µM
Emax (5-HT2a; [5]): 38.9%

CC(N)Cc1ccc2ccccc2c1 (centres unmarked) [Example 10, 2-(naphthalen-2-yl)-1-methylethylamine hydrochloride]
Emax (5-HT2a; [5]): 20.4%

CC(N)Cc1ccc2ccccc2c1O (centres unmarked) [Example 7, 2-(1-hydroxy-naphthalen-2-yl)-1-methylethylamine hydrochloride]
Emax (5-HT2a; [5]): 17.3%

COc1cc(CC(C)N)c(OC)c2ccccc12 (centres unmarked) [Example 1, 2-(1,4-Dimethoxy-naphthalen-2-yl)-1-methylethylamine hydrochloride]
EC50 (5-HT2 receptor [1]): 0.238 µM
Emax (5-HT2 receptor [1]; A7R5; read-out: Efficacy (Emax, %)): 118%
EC50 (5-HT2a): 0.188 µM
Emax (5-HT2a; [5]): 46.5%

COc1cc(C(=O)C(C)N)c(OC)c2ccccc12 (centres unmarked) [Example 9, 2-amino-1-(1,4-dimethoxy-naphthalen-2-yl)-propan-1-one hydrochloride]
Emax (5-HT2a; [5]): 21.8%

COc1cc([C@H](O)[C@@H](C)N)c(OC)c2ccccc12 [Example 3, (1S,2R)-2-Amino-1-(1,4-dimethoxy-naphthalen-2-yl)-propan-1-ol hydrochloride]
EC50 (5-HT2a; [6]): 1.41 µM
Emax (5-HT2a; [5]): 28.4%

From patent publication US7071225B2, “Arylaminopropane analogues and their use for the treatment of glaucoma” (Alcon, Inc., priority 2001, dated 2006)
